From patent US20240158386A1, “BENZOXAZOLONE INHIBITORS OF INFLAMMASOMES” (ICAHN SCHOOL OF MEDICINE AT MOUNT SINAI, priority 2021, published 2024)

Legend:
[1] = system: ASC specks following NLRP3 activation; assay: ASC speck formation / ASC oligomerization in m-Cerulean ASC labeled macrophages; assay type: cell-based, murine; conditions: NLRP3 activation with LPS and ATP or HMGB1 and ATP (FIG. 3F)
Experimental: m-Cerulean ASC labeled macrophages. NLRP3 Knock Out immortalized murine macrophages, stably expressing m-Cerulean-ASC, and NLRP3-Flag were a kind donation of Prof. Eicke Latz, (Institute of Innate Immunity, University of Bonn, Germany). Murine macrophages were maintained in high glucose DMEM medium supplemented with 10% FBS, 1% sodium pyruvate, and passaged every 2-3 days, before reaching confluence.
For ASC speck formation evaluation, murine macrophages were seeded in 96 well SCREENSTAR black microplates with clear base, 24 hours before stimulation. Then, cells were incubated for 1 hour with different concentrations of the inhibitors, or with the same DMSO volume for positive and negative controls for NLRP3 activation—DMSO-LPS-ATP or only DMSO, respectively. 0.5 μM MCC950 was used as a positive control for inhibition of NLRP3-mediated ASC oligomerization. NLRP3 activation was induced through treatment with 250 ng/ml LPS for 2.5 hours, followed by addition of 4.5 mM ATP for 45 min. Cells were then fixed and counterstained in a single step, as previously described (Stutz, A. et al. ASC Speck Formation as a Readout for Inflammasome Activation. in The Inflammasome (eds. De Nardo, C. M. & Latz, E.) vol. 1040 91-101 (Humana Press, 2013).). For that, a stock solution of DRAQS in formaldehyde was used, being the final concentrations 1% formaldehyde and 2.5 μM DRAQ5.
ASC oligomerization determination. […] ASC specks in cells pretreated with C75, C77, C78, and C97, before NLRP3 activation (as above indicated), were visualized with a widefield Leica DMi8 fluorescence microscope, using the 20× objective. […] For image analysis and speck quantification, ImageJ was used https://imagej.nih.gov/ij/index.html. Speck and nuclei quantification was performed as previously described in Stutz et al. When required (overlapping nuclei), the watershed separation algorithm was used to separate the particles. […] The rate of speck positive cells was calculated by normalizing the number of speck positive cells to the number of nuclei. […]

[2] = target: T1, Human recombinant NLRP3 protein (Homo sapiens, UniProt Q96P20); assay: Inhibition of the NLRP3 ATPase activity (cell-free, ADP-Glo); assay type: biochemical; conditions: isolated protein, 10 μM ATP
T1 construct: purchased BPS Bioscience, San Diego CA
Experimental: Inhibition of the NLRP3 ATPase activity. The efficacy of C77 to inhibit ATP hydrolysis by NLRP3 was directly assayed using a cell-free assay. Human recombinant NLRP3 protein (BPS Bioscience, San Diego CA) was incubated at 37° C. with different concentrations of C77 for 20 min, as previously described (Cocco, M., et al. (2017) Development of an Acrylate Derivative Targeting the NLRP3 Inflammasome for the Treatment of Inflammatory Bowel Disease. J. Med. Chem. 60, 3656-3671). 10 μM ultrapure ATP was then added, and reaction mixtures were further incubated for 45 min. ATP conversion into ADP was determined using the ADP-Glo Kinase Assay (Promega), following the recommendations of the manufacturer, in a SpectraMax i3x Multimode Detection Platform.

TNF-α production = TNF-α production in cell culture supernatant (ELISA); assay type: cell-based, mouse; conditions: FIG. 3B
Experimental: Cytokine quantification. IL-1β in cell supernatants and brain tissue samples—after the different treatment groups—was quantified using the Mouse IL-1 beta/IL-1F2 DuoSet ELISA kit (R&D systems), IL-6 in cell culture supernatant was measured through the Mouse IL-6 ELISA kit (ThermoFisher), TNF-α in cell culture supernatants was determined using the Mouse TNF-alpha DuoSet ELISA (R*D systems), and IL-18 in brain tissue was measured through the IL-18 Mouse ELISA Kit (Invitrogen) following the manufacturers' recommended protocol. IL-1β precursor and cleaved IL-1β in the FC of mice treated with vehicles, LPS, or C77-LPS was assessed by western blot. All samples were run in technical duplicates.

[3] = system: inflammasome priming (NLRP3, caspase-1, IL-1β, TNF-α, IL6, NLRC4 expression); assay: In-vivo assessment of C77: RNA expression of inflammatory genes in mouse brain; set-up: species or system WT C57BL/6J mice; conditions: 50 mg/kg 2 hours before LPS administration
Experimental: Gene expression analysis. RNA was isolated from frontal cortex from C57BL/6J mice or from THP1 human cultures using the RNeasy Mini Kit (QIAGEN, Hilden, Germany), following the recommendations of the manufacturer. RNA concentration was determined, and cDNA was synthesized using the High-Capacity cDNA Reverse Transcription Kit with RNase Inhibitor (applied biosystems™). The expression levels of inflammatory genes—NLRP3, caspase-1, IL-1β, TNF-α, NLRC4, IL-18, and IL6—were determined in 4 replicates through PowerUp SYBER Green Master Mix (Thermofisher) using an ABI PRISM […] Sequence Detection System. Hypoxanthine phosphoribosyltransferase (HPRT) was used as an internal control in samples from mouse brains, and GAPDH in the case of THP1 lysates. Gene expression levels were normalized to control samples (mice or THP1 cells treated with PBS).
Animals used in in-vivo assessments. WT C57BL/6J mice (stock #000664) were obtained from The Jackson Laboratory. Mice were housed in groups of five animals per cage on a 12:12 hours light/dark cycle. Water and food were provided ad libitum. 8-10 weeks males were used for experiments. All procedures were approved by the Institutional Animal Care and use Committee of the Icahn School of Medicine at Mount Sinai.
In-vivo assessment of C77. The ability of C77 to inhibit NLRP3 in-vivo was evaluated using WT C57BL/6J mice. […]

T1 sequence (Q96P20 whole entry): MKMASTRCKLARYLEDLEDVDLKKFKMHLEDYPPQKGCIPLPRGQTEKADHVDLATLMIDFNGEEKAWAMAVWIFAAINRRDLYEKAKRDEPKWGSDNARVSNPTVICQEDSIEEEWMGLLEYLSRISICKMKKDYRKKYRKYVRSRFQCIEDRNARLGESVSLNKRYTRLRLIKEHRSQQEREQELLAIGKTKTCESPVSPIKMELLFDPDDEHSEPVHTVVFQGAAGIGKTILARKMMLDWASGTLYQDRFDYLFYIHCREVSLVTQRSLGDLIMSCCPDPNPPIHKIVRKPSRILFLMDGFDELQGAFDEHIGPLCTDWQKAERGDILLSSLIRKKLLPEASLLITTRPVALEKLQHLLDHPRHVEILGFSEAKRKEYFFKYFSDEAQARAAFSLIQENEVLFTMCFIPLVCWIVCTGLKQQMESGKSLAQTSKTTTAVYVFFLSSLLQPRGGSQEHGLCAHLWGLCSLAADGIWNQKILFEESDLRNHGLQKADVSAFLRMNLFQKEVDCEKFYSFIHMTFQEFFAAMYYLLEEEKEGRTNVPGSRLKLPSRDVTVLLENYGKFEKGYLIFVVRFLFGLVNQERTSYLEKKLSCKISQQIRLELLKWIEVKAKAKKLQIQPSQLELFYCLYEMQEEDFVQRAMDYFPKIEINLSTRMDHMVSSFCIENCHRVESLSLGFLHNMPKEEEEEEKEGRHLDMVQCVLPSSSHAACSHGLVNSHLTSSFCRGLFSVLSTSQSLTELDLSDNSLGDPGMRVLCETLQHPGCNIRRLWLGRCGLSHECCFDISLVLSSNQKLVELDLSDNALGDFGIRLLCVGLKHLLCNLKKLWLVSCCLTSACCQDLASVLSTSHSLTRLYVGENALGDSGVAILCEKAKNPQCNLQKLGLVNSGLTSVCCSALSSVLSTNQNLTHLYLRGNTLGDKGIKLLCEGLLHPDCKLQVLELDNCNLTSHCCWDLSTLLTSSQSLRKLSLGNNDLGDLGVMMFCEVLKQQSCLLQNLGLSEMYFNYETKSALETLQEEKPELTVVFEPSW

O=C(Cn1c(=O)oc2ccccc21)NCc1cncc(-c2ccsc2)c1 [Compound C77]
concentrations with observable reduction of speck positive cells [1]: ≥ 10 nM | concentrations with statistically significant inhibition of NLRP3 ATPase activity [2]: ≥ 10 nM | IC50 ([2]; nonlinear fit): 40 nM | inhibition of TNF-α production (TNF-α production): did not inhibit | overexpression of inflammatory genes (NLRP3, IL1β, TNF-α, IL6) in mouse brain [3]: did not reduce the overexpression of these genes
